Patent publication US8729128B2, “Lipoxin A4 protection for cornea endothelial cells” (Board of Supervisors of Louisiana State University And …, priority 2007, dated 2014)

Assays:
Assay type in all cases: cell-based
[1] = test system: Rabbit corneal endothelial cells (RCEC); assay: In vitro wound closure in confluent rabbit corneal endothelial cells; conditions: 10 nM and 100 nM, 24 hours
Excerpt: (§1) Rabbit corneal endothelial cells (RCEC) and human corneal endothelial cells along with the Decemet's membrane were isolated from normal eyes (National Disease Research Interchange (NDRI), Philadelphia, Pa.), and the cells were suspended in Dulbecco's Modified Eagle Medium/Nutrient Mixture F-12 (DMEM/F12; GIBCO®, Grand Island, N.Y.) supplemented with 15% fetal bovine serum (FBS; GIBCO®), and seeded in 12-well plates. Cell phenotype was identified by using the endothelial cell marker anti-ZO-1 antibody (anti-zonula occludins-1 antibody) (Zymed Laboratories, Inc., San Francisco, Calif.). The localization of the lipoxin A4 (LXA4) receptor was detected with the polyclonal antibody FPRL1 (formyl peptide receptor-like 1; sc-13193, Santa Cruz Biotechnology, Inc., Santa Cruz, Calif.) (FIG. 1). […] The same was found with human endothelial cells. (Data not shown) This is the first time such receptor has been reported in cornea endothelial cells.
To measure in vitro wound closure, 12-day cultures of completely confluent RCEC in 12-well plates were wounded by linear scraping with a sterile plastic tip in the center of the well. Cells were incubated for 24 hours in DMEM/F12 with or without 15-epimer lipoxin A4 at 10 nM and 100 nM concentrations. The width of wound was calculated using Metavue Image software. […]

[2] = test system: Rabbit corneal endothelial cells (RCEC); assay: Proliferation of rabbit corneal endothelial cells (Ki-67 antibody staining); conditions: rabbit CEC, 10 nM to 200 nM, DMEM/F12 0.5% FBS, 24 hours
Excerpt: as §1
Proliferation of cornea endothelial cells was evaluated with anti-Ki-67 antibody (Zymed Laboratories, Inc., San Francisco, Calif.). Rabbit CEC cells were grown at 60-70% confluence, starved for 24 hours, and then treated with 15-epimer-lipoxin A4 (Calbiochem, Madison, Wis.) at different concentrations from 10 nM to 200 nM in DMEM/F12 containing 0.5% FBS for 24 hours. […] In addition, a similar experiment was conducted using lipoxin A4.

[3] = test system: human corneal endothelial cells; assay: Proliferation of cultured human corneal endothelial cells (Ki-67 immunofluorescence); conditions: human CEC, second passage, 100 nM, 24 hours
Procedure: (§2) Human eyeballs were obtained from NDRI (National Disease Research Interchange, Philadelphia, Pa.) and shipped to the laboratory on ice. The corneas were excised along the sclerocorneal rim, and the endothelia together with the Decemet's membrane were removed with tooth-free fine forceps under a dissection microscope. Pieces of the endothelia were seeded in DMEM/F12 (GIBCO®, Grand Island, N.Y.) supplemented with 15% FBS in 12-well plates. Cell phenotypes were identified and confirmed by using the endothelial cell marker anti-ZO-1 antibody (Zymed Laboratories, Inc., San Francisco, Calif.). […] This method of cell culture was used to establish cell cultures from several human eyeballs.
A secondary passage of human corneal endothelial cells derived from a donor was obtained as described above in Example 4. The cells were grown to 70% confluence in 24-well plate, and then starved for 24 hours. The starved cells were then incubated in DMEM/F12 containing 0.5% FBS with or without 15-epimer LxA4 (100 nM; from Calbiochem, Madison, Wis.) for 24 hours. […] Based on the rabbit studies above, it is believed that lipoxin A4 and its other analogs would show similar results as the 15-epimer lipoxin A4 used in these experiments.

[4] = test system: human corneal endothelial cells; assay: Cell migration in a wound of human corneal endothelial cells; conditions: human CEC, 100 nM, at 48 hours, p<0.05
Procedure: as §2
A secondary passage of human corneal endothelial cells derived from a donor was obtained as described above in Example 4. The cells were grown to 70% confluence in 24-well plate, and then starved for 24 hours. […] Wound healing was determined by phase contrast images collected by a camera attached to the microscope, and the result shown in FIG. 6B. The width of wound was calculated using Metavue Image software. The degree of cell migration was quantified by measuring the width of the wounded area at 24 and 48 hours, and the data shown in FIG. 6A. […]

Row | SMILES | wound healing (width of wound) [1] | number of cells with Ki-67 staining (proliferation) [2] | cell proliferation (percentage of Ki-67-positive cells versus total cells) [3] | cell migration (width of the wounded area) [4]
1 | CCCCC[C@H](O)/C=C/C=C\C=C\C=C\[C@@H](O)[C@@H](O)CCCC(=O)O [lipoxin A4] | the same, both qualitatively and quantitatively | the same, both qualitatively and quantitatively | – | –
2 | CCCCC[C@@H](O)/C=C/C=C\C=C\C=C\[C@@H](O)[C@@H](O)CCCC(=O)O [15-epimer lipoxin A4] | promoted wound healing | increases with the concentration | significant increase | significant increase in cell migration
